Test system: HMG-CoA reductase
Test: not given
Settings: cited from earlier work

For CC[C@H](C)C(=O)O[C@H]1CCC=C2C=C[C@H](C)[C@H](CC[C@@H]3C[C@@H](O)CC(=O)O3)[C@H]21 [compactin], which “Inhibition of HMG-CoA reductase” value is on record?
The value was “inhibit HMG-CoA reductase”.

With CC[C@H](C)C(=O)O[C@H]1C[C@@H](C)C=C2C=C[C@H](C)[C@H](CC[C@@H]3C[C@@H](O)CC(=O)O3)[C@H]21 [lovastatin] as the molecule, how does the “Inhibition of HMG-CoA reductase” value read?
The value was “inhibit HMG-CoA reductase”.

Test system: Ras farnesylation
Test: not given
Settings: Hancock et al., Casey et al., Schafer et al.; cited from earlier work

Which “Inhibition of Ras farnesylation in vivo” value does the source give for CC[C@H](C)C(=O)O[C@H]1CCC=C2C=C[C@H](C)[C@H](CC[C@@H]3C[C@@H](O)CC(=O)O3)[C@H]21 [compactin] here?
Its value is “Inhibition of Ras farnesylation in vivo has been demonstrated”.

Which “Inhibition of Ras farnesylation in vivo” value does the source give for CC[C@H](C)C(=O)O[C@H]1C[C@@H](C)C=C2C=C[C@H](C)[C@H](CC[C@@H]3C[C@@H](O)CC(=O)O3)[C@H]21 [lovastatin] here?
The value was “Inhibition of Ras farnesylation in vivo has been demonstrated”.

Target: T1, Farnesyl-protein transferase (Bos taurus, UniProt P29702+P49355)
T1 construct: Farnesyl-protein transferase from bovine brain; from tissue; host or cells: bovine brain, partially purified (DEAE-Sephacel, N-octyl agarose, mono Q HPLC)
Test: Inhibition of Ras farnesylation in vitro by farnesyl-protein transferase (FTase)
Assay type: biochemical
Settings: partially purified bovine brain FTase; Ras-CVLS 3.5 μM, [3H]FPP 0.25 μM; averages of 2-5 determinations
Method: The farnesyl pyrophosphate analog compounds of this invention were tested as follows for their ability to inhibit Ras farnesylation in vitro. Farnesyl-protein transferase from bovine brain was chromatographed on DEAE-Sephacel (Pharmacia, 0-0.8M NaCl gradient elution), N-octyl agarose (Sigma, 0-0.6M NaCl gradient elution), and a mono Q HPLC column (Pharmacia, 0-0.3M NaCl gradient). Ras-CVLS at 3.5 μM, 0.25 μM [^3 H]FPP, and the indicated compounds were incubated with this partially purified enzyme preparation.
The FTase data presented above are the averages of 2-5 determinations and reflect the ability of the test compounds to inhibit Ras farnesylation in vitro.

With CC(C)=CCC/C(C)=C/CC/C(C)=C/CCC(O)CC(=O)O (stereo not drawn) [Scheme 1, 3-Hydroxy-7,11,15-trimethylhexadeca-6,10,14-trienoic acid] as the molecule, how does the IC50 read?
The IC50 was 310 µM.

For CC(C)=CCC/C(C)=C/CC/C(C)=C/CCC(=O)CP(=O)(O)O [Scheme 2, [2-Oxo-6,10,14-trimethylpentadeca-5,9,13-trienyl]phosphonic acid], which IC50 is on record?
The IC50 was 62 µM.

With CC(C)=CCC/C(C)=C/CC/C(C)=C/CCC(O)CP(=O)(O)O (stereo not drawn) [Scheme 3, [2-Hydroxy-6,10,14-trimethylpentadeca-5,9,13-trienyl]phosphonic acid] as the molecule, how does the IC50 read?
The IC50 was 100 µM.

With CC(=O)C(C/C=C(\C)CC/C=C(\C)CCC=C(C)C)P(=O)(O)O (stereo not drawn) [Scheme 4, [1-Acetyl-4,8,12-trimethyltrideca-3,7,11-trienyl]phosphonic acid] as the molecule, how does the IC50 read?
Its IC50 is 21 µM.

With CC(C)=CCC/C(C)=C/CC/C(C)=C/CNC(=O)CP(=O)(O)O [Scheme 5, [2-[(E,E)-3,7,11-Trimethyl-2,6,10-dodecatrienylamino]-2-oxo-ethyl]phosphonic acid] as the molecule, how does the IC50 read?
Its IC50 is 0.044 µM.

For CC(C)=CCC/C(C)=C/CC/C(C)=C/CCSCP(=O)(O)O [Scheme 6, [(E,E)-4,8,12-trimethyl-3,7,11-tridecatrienyl]thiomethyl-phosphonic acid], which IC50 is on record?
Its IC50 is 100 µM.

Which IC50 does the source give for “[1-Hydroxy-(E,E)-4,8,12-trimethyl-3,7,11-tridecatrienyl]phosphonic acid [Scheme 12]” here?
The IC50 was 42 µM.

Which IC50 does the source give for “[2-[(E,E)-3,7,11-Trimethyl-2,6,10-dodecatrienylamino]-2-oxo-ethyl]phosphonic acid monomethyl ester, potassium salt [Scheme 8]” here?
Its IC50 is 100 µM.
